Source: patent publication US20240392254A1, “CANCER MICROENVIRONMENT” (CARCINOTECH LTD, priority 2021, published 2024)
Read-outs that look alike come from different tables or passages of the source.

What was measured:
[1] = system: U-87 MG glioblastoma cell line; test: Cisplatin dose-response in 2D culture, CellTiter-Glo viability; type: cell-based
Experimental: (§1) Cell cultures were exposed to the indicated cisplatin concentrations for 72 h. Cell viability was then assessed using the luminescence-based CellTiter-Glo Assay. Data are presented as means±SEM (n≥2). For 2D cell cultures and 3D tumorspheres FIGS. 7A and 7B) dose-response curves were fitted (nonlinear regression) to calculate the IC50 values (see: Table 1 in the examples section). In the 3D bioprint experiment (FIG. 7B) statistically significant difference between untreated control and cisplatin treatment was determined using an unpaired t-test (**** p≤0.0001).
(§2) Both cell lines were deemed sensitive to cisplatin, however, higher drug doses were required to initiate death of cancer stem cells.

[2] = system: glioblastoma cancer stem cells (GBM CSC); test: as above; type: cell-based
Experimental: as §1, §2

[3] = system: 3D GBM tumorspheres (spheroids) from coculture of U-87 MG, GBM CSC, GBM CAF and microglia (HMC3); test: Cisplatin dose-response in 3D GBM tumorspheres, CellTiter-Glo viability; type: cell-based
Experimental: as §1
In the next step, response to cisplatin was tested in 3D GBM spheroids (see FIG. 7B). […] Nevertheless, cisplatin was effective in 3D GBM tumourspheres (spheroids) as well.

[4] = system: 3D GBM bioprints (example B21_012); test: Cisplatin treatment of 3D GBM bioprinted constructs, CellTiter-Glo viability; type: cell-based, human
Experimental: as §1
Bioprinted constructs were treated with 50, 100, 200, or 400 μM cisplatin (CDDP) for 72 h. Viability was assessed using CellTiter-Glo assay.
Tumorspheres, obtained from a coculture of U87MG (60%), microglia HMC3 (28%), GBM-CAF (10%) and GBM-CSC (2%) after 14 days in 5×96-well round bottom low adhesion plates, were harvested by sedimenting in Falcon tube then transferred into a 1 ml syringe. The culture medium was eliminated by gravitation. The total volume of tumorsphere pellet was 50 μL. 270 μL of bioink Cellink Laminink 411 were transferred into another 1 ml syringe; a connector was used to link both syringes. Mixing the bioink and tumorspheres was done by pushes from one side to another. The homogenous mixture tumorspheres-bioink (˜320 μL) was transferred in 3 ml syringe preloaded with 1 mL start ink. […]

[5] = system: bioprinted construct BB21-001 (MDA-MB-231, hMAds, CAF, BCSC); test: Doxorubicin treatment of single-cell bioprinted breast cancer construct, RealTime-Glo MT viability; type: cell-based, human
Experimental: The 15-day old bioprinted constructs were treated with 0.2 and 1 μM Doxorubicin (Doxo) for 72 h. Cell viability was assessed using RealTime-Glo MT before treatment (day 0) and after 72 h of treatment. To assess the doxorubicin effects after 72 h, a percentage of day 0 viability was calculated for each construct. Statistically significant differences were determined using one-way ANOVA with Tukey's post-hoc test, and indicated as follows: *** p≤0.001, **** p≤0.0001, ns—not significant.
Each cell line (MDA-MB-231, hMAds, CAF and BCSC) was harvested, counted and then the required number of cells was transferred into a 15 ml Falcone tube. The cells were spun down then resuspended into 20 μL of complete 3D Tumorsphere Medium XF (obtained from PromCell®) and loaded into a syringe preloaded with 200 μL of Laminink 411 (cells corresponded to 10% of the bioink volume). Then mixed for 550 times. The homogeneous mixture was transferred to a syringe and then set to bioprint (the extrusion volume of each bioprint being set to 3 uL (approximately 50000 cells per droplet).

[6] = system: bioprinted construct BB21-001; test: LDH release (LDH-Glo) cytotoxicity in bioprinted breast cancer construct; type: cell-based, human; details: 0.2 and 1 μM doxorubicin, 72 h time-point
Experimental: The 15-day old bioprinted constructs were treated with 0.2 and 1 μM Doxorubicin (Doxo). Medium samples were collected at 24, 48 and 72 h time points to assess the Lactate Dehydrogenase (LDH) release, which is a marker of cytotoxicity. LDH-Glo assay was used. Data are presented as means±SD, n=3.
Cytotoxicity of doxorubicin was also assessed by LDH release detection.

[7] = system: MDA-MB-231 triple negative breast cancer cells; test: Doxorubicin dose-response in 2D cell culture; details: for cell viability (in comparison to an untreated control sample): 2D cell culture
Experimental: The MDA-MB-231 cells were cultured in Leibovitz's L-15 Medium (ATCC®) and fetal bovine serum was added to a final concentration of 10%, and in accordance with the general procedure outlined in MDA-MB-231 (HTB-26™) Product sheet from ATCC® (https://www.atcc.org/products/htb-26).
Cells were exposed to a range of doxorubicin concentrations for 72 hours and sensitivity to this drug was evaluated by determining a concentration that kills 50% of the cells (IC50).

## N.N.[Cl][Pt][Cl] [Cisplatin]
[1]; 2D U-87 MG, 72 h, read-out: Cisplatin IC50 (Mean ± SEM)
  IC50: 12.9 ± 2.5 µM
[1]; 2D culture, 72 hours
  sensitivity to cisplatin: sensitive
[2]; 2D GBM CSC, 72 h, read-out: Cisplatin IC50 (Mean ± SEM)
  IC50: 20.1 ± 3.5 µM
[2]; 2D culture, 72 hours, higher doses required than for U-87 MG
  sensitivity to cisplatin: sensitive
[3]; 3D GBM tumourspheres
  effectiveness of cisplatin: effective
[3]; 3D spheroids (tumourspheres)
  IC50: 111 µM
[4]; 3D Bioprinted tumour, 72 h, read-out: Cisplatin IC50
  IC50: > 200 µM
[4]; printed construct, read-out: IC50 value
  IC50: > 200 µM

## COc1cccc2c1C(=O)c1c(O)c3c(c(O)c1C2=O)C[C@@](O)(C(=O)CO)C[C@@H]3O[C@H]1C[C@H](N)[C@H](O)[C@H](C)O1 [doxorubicin, Doxorubicin]
[5]; 1.0 μM doxorubicin
  effect on cell viability: significantly reduces cell viability
[5]; Homo sapiens, MDA-MB-231, 0.2 μM doxorubicin, 72 h, 15-day old construct, read-out: cell viability (in comparison to an untreated control sample)
  viability at 0.2 µM: ~84%
[5]; Homo sapiens, MDA-MB-231, 1.0 μM doxorubicin, 72 h, 15-day old construct, read-out: cell viability (in comparison to an untreated control sample)
  viability at 1 µM: ~35%
[6]
  LDH release (cytotoxicity): increasing trend
[7]; 0.2 μM doxorubicin
  cell viability (in comparison to an untreated control sample): ~40%
[7]; 1.0 μM doxorubicin
  cell viability (in comparison to an untreated control sample): <14%
[7]; 2D culture, 72 hours
  IC50: 0.08 ± 0.02 µM
